Test results taken from patent US11820766B2, “Monoacylglycerol lipase modulators” (Janssen Pharmaceutica NV, priority 2018, dated 2023).
pIC50: −log10 of the molar value.

molecular target: T1, human MGL from HeLa cells (Homo sapiens, UniProt Q99685); assay: In vitro MGL activity assay: [glycerol-1,3-3H]-oleyl glycerol cleavage by MGL from HeLa cells; format: biochemical; conditions: 300 nM [Glycerol-1,3-3H]-oleyl glycerol, one hour incubation
T1 construct: combining endogenously expressed MGL from HeLa cells with test compounds; endogenous in cells; host or cells: HeLa cells / cell homogenates
T1 sequence (Q99685 1-303): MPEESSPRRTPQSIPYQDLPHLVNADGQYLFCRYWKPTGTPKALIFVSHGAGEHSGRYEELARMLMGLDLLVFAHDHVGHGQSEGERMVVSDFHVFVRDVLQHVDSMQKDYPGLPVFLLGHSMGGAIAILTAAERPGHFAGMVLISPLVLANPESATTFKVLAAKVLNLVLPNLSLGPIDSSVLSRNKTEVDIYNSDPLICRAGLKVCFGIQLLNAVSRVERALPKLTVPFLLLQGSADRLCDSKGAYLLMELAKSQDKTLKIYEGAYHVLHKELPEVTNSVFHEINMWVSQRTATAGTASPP
Text: MGL is the predominant hydrolase in HeLa cells/cell homogenates.

Going from `CC1c2nn(C)c(-c3ccc4c(ccn4C)c3)c2CCN1C(=O)c1ccc2ncccc2c1` (centres unmarked) [Example 252, (2,7-Dimethyl-3-(1-methyl-1H-indol-5-yl)-2,4,5,7-tetrahydro-6H-pyrazolo[3,4-c]pyridin-6-yl)(quinolin-6-yl)methanone] to `CC1c2nn(C)c(-c3cccc4ccn(C)c34)c2CCN1C(=O)c1ccc2ncccc2c1` (centres unmarked) [Example 253, (2,7-Dimethyl-3-(1-methyl-1H-indol-7-yl)-2,4,5,7-tetrahydro-6H-pyrazolo[3,4-c]pyridin-6-yl)(quinolin-6-yl)methanone], the pIC50 falls from 6.20 to 5.79 (0.41 log units). The first is the more potent here.

Going from `COc1cccc(C(=O)N2CCc3c(nn(-c4ccccc4)c3-c3ccccc3)[C@@H]2C)c1` [Example 257, (3-Methoxyphenyl)-[(7S)-7-methyl-2,3-diphenyl-5,7-dihydro-4H-pyrazolo[3,4-c]pyridin-6-yl]methanone] to `COc1cccc(C(=O)N2CCc3c(nn(C)c3-c3cc(F)c(F)c(F)c3)[C@@H]2C)c1` [Example 260, [(7S)-2,7-Dimethyl-3-(3,4,5-trifluorophenyl)-5,7-dihydro-4H-pyrazolo[3,4-c]pyridin-6-yl]-(3-methoxyphenyl)methanone], the pIC50 rises from 7.00 to 8.14 (1.14 log units).

Going from `COc1ccc(C(=O)N2CCc3c(nn(C)c3-c3cc(C)cc(F)c3)[C@@H]2C)cc1` [Example 258, [(7S)-3-(3-Fluoro-5-methyl-phenyl)-2,7-dimethyl-5,7-dihydro-4H-pyrazolo[3,4-c]pyridin-6-yl]-(4-methoxyphenyl)methanone] to `COc1ccc(C(=O)N2CCc3c(nn(C)c3-c3cc(F)c(F)c(F)c3)[C@@H]2C)cc1` [Example 261, [(7S)-2,7-Dimethyl-3-(3,4,5-trifluorophenyl)-5,7-dihydro-4H-pyrazolo[3,4-c]pyridin-6-yl]-(4-methoxyphenyl)methanone], the pIC50 rises from 7.16 to 7.53 (0.37 log units). The second is the more potent here.

Compared with `COc1ccccc1C(=O)N1CCc2c(nn(C)c2-c2cc(F)c(F)c(F)c2)[C@@H]1C` [Example 259, [(7S)-2,7-Dimethyl-3-(3,4,5-trifluorophenyl)-5,7-dihydro-4H-pyrazolo[3,4-c]pyridin-6-yl]-(2-methoxyphenyl)methanone], `C[C@H]1c2nn(C)c(-c3cc(F)c(F)c(F)c3)c2CCN1C(=O)c1ccccc1OC(F)(F)F` [Example 263, [(7S)-2,7-Dimethyl-3-(3,4,5-trifluorophenyl)-5,7-dihydro-4H-pyrazolo[3,4-c]pyridin-6-yl]-[2-(trifluoromethoxy)phenyl]methanone] is 0.35 log units lower in pIC50: 7.90 for the first, 7.55 for the second.

Going from `C[C@H]1c2nn(C)c(-c3cc(F)c(F)c(F)c3)c2CCN1C(=O)c1cccc(OC(F)(F)F)c1` [Example 262, [(7S)-2,7-Dimethyl-3-(3,4,5-trifluorophenyl)-5,7-dihydro-4H-pyrazolo[3,4-c]pyridin-6-yl]-[3-(trifluoromethoxy)phenyl]methanone] to `C[C@H]1c2nn(C)c(-c3cc(F)c(F)c(F)c3)c2CCN1C(=O)c1ccc(OC(F)F)cc1` [Example 264, [4-(Difluoromethoxy)phenyl]-[(7S)-2,7-dimethyl-3-(3,4,5-trifluorophenyl)-5,7-dihydro-4H-pyrazolo[3,4-c]pyridin-6-yl]methanone], the pIC50 falls from 7.28 to 6.67 (0.61 log units). The first is the more potent here.

First: COc1ccc(C(=O)N2CCc3c(nn(C)c3-c3cc(F)c(F)c(F)c3)[C@@H]2C)c(F)c1 [Example 265, [(7S)-2,7-Dimethyl-3-(3,4,5-trifluorophenyl)-5,7-dihydro-4H-pyrazolo[3,4-c]pyridin-6-yl]-(2-fluoro-4-methoxy-phenyl)methanone]
Second: C[C@H]1c2nn(C)c(-c3cc(F)c(F)c(F)c3)c2CCN1C(=O)c1cc(-c2cnn(C)c2)ccc1F [Example 274, [(7S)-2,7-Dimethyl-3-(3,4,5-trifluorophenyl)-5,7-dihydro-4H-pyrazolo[3,4-c]pyridin-6-yl]-[2-fluoro-5-(1-methylpyrazol-4-yl)phenyl]methanone]
The pIC50 of the first is 0.40 log units lower: 7.46 for the first, 7.86 for the second.

`CNC(=O)c1cccc(C(=O)N2CCc3c(nn(C)c3-c3cc(F)c(F)c(F)c3)[C@@H]2C)c1` [Example 266, 3-[(7S)-2,7-Dimethyl-3-(3,4,5-trifluorophenyl)-5,7-dihydro-4H-pyrazolo[3,4-c]pyridine-6-carbonyl]-N-methyl-benzamide] and `C[C@H]1c2nn(C)c(-c3cc(F)c(F)c(F)c3)c2CCN1C(=O)c1cccc(-c2cnn(C)c2)c1` [Example 273, [(7S)-2,7-Dimethyl-3-(3,4,5-trifluorophenyl)-5,7-dihydro-4H-pyrazolo[3,4-c]pyridin-6-yl]-[3-(1-methylpyrazol-4-yl)phenyl]methanone] are within 0.2 log units of each other in pIC50: 6.88 for the first, 7.03 for the second.

First: C[C@H]1c2nn(C)c(-c3cc(F)c(F)c(F)c3)c2CCN1C(=O)c1ccc(-n2ccnc2)cc1 [Example 267, [(7S)-2,7-Dimethyl-3-(3,4,5-trifluorophenyl)-5,7-dihydro-4H-pyrazolo[3,4-c]pyridin-6-yl]-(4-imidazol-1-ylphenyl)methanone]
Second: C[C@H]1c2nn(C)c(-c3cc(F)c(F)c(F)c3)c2CCN1C(=O)c1ccc(-c2ccn[nH]2)cc1 [Example 269, [(7S)-2,7-Dimethyl-3-(3,4,5-trifluorophenyl)-5,7-dihydro-4H-pyrazolo[3,4-c]pyridin-6-yl]-[4-(1H-pyrazol-5-yl)phenyl]methanone]
The pIC50 of the first is 1.81 log units lower: 6.24 for the first, 8.05 for the second.

First: C[C@H]1c2nn(C)c(-c3cc(F)c(F)c(F)c3)c2CCN1C(=O)c1ccc(-c2cn[nH]c2)cc1 [Example 268, [(7S)-2,7-Dimethyl-3-(3,4,5-trifluorophenyl)-5,7-dihydro-4H-pyrazolo[3,4-c]pyridin-6-yl]-[4-(1H-pyrazol-4-yl)phenyl]methanone]
Second: C[C@H]1c2nn(C)c(-c3cc(F)c(F)c(F)c3)c2CCN1C(=O)c1cccc(-c2cn[nH]c2)c1 [Example 272, [(7S)-2,7-Dimethyl-3-(3,4,5-trifluorophenyl)-5,7-dihydro-4H-pyrazolo[3,4-c]pyridin-6-yl]-[3-(1H-pyrazol-4-yl)phenyl]methanone]
The pIC50 of the first is 0.21 log units lower: 7.62 for the first, 7.83 for the second.

First: C[C@H]1c2nn(C)c(-c3cc(F)c(F)c(F)c3)c2CCN1C(=O)c1cccc(-c2cc[nH]n2)c1 [Example 270, [(7S)-2,7-Dimethyl-3-(3,4,5-trifluorophenyl)-5,7-dihydro-4H-pyrazolo[3,4-c]pyridin-6-yl]-[3-(1H-pyrazol-3-yl)phenyl]methanone]
Second: C[C@H]1c2nn(C)c(-c3cc(F)c(F)c(F)c3)c2CCN1C(=O)c1cccc(-n2cc(F)cn2)c1 [Example 275, [(7S)-2,7-Dimethyl-3-(3,4,5-trifluorophenyl)-5,7-dihydro-4H-pyrazolo[3,4-c]pyridin-6-yl]-[3-(4-fluoropyrazol-1-yl)phenyl]methanone]
The pIC50 of the first is 0.87 log units higher: 8.04 for the first, 7.17 for the second. The first is the more potent here.

`COc1ccc(C(=O)N2CCc3c(nn(C)c3-c3cc(F)c(F)c(F)c3)[C@@H]2C)cc1-c1ccn(C)n1` [Example 271, [(7S)-2,7-Dimethyl-3-(3,4,5-trifluorophenyl)-5,7-dihydro-4H-pyrazolo[3,4-c]pyridin-6-yl]-[4-methoxy-3-(1-methylpyrazol-3-yl)phenyl]methanone] and `Cc1ncn(-c2cccc(C(=O)N3CCc4c(nn(C)c4-c4cc(F)c(F)c(F)c4)[C@@H]3C)c2)n1` [Example 276, [(7S)-2,7-Dimethyl-3-(3,4,5-trifluorophenyl)-5,7-dihydro-4H-pyrazolo[3,4-c]pyridin-6-yl]-[3-(3-methyl-1,2,4-triazol-1-yl)phenyl]methanone] are within 0.2 log units of each other in pIC50: 6.74 for the first, 6.84 for the second.

Going from `C[C@H]1c2nn(C)c(-c3cc(F)c(F)c(F)c3)c2CCN1C(=O)c1cc(F)cc(-n2cncn2)c1` [Example 277, [(7S)-2,7-Dimethyl-3-(3,4,5-trifluorophenyl)-5,7-dihydro-4H-pyrazolo[3,4-c]pyridin-6-yl]-[3-fluoro-5-(1,2,4-triazol-1-yl)phenyl]methanone] to `COc1cc(C(=O)N2CCc3c(nn(C)c3-c3cc(F)c(F)c(F)c3)[C@@H]2C)cc(-n2cncn2)c1` [Example 278, [(7S)-2,7-Dimethyl-3-(3,4,5-trifluorophenyl)-5,7-dihydro-4H-pyrazolo[3,4-c]pyridin-6-yl]-[3-methoxy-5-(1,2,4-triazol-1-yl)phenyl]methanone], the pIC50 rises from 7.66 to 8.49 (0.83 log units). The second is the more potent here.

`C[C@H]1c2nn(C)c(-c3cc(F)c(F)c(F)c3)c2CCN1C(=O)c1ccccc1-n1cncn1` [Example 279, [(7S)-2,7-Dimethyl-3-(3,4,5-trifluorophenyl)-5,7-dihydro-4H-pyrazolo[3,4-c]pyridin-6-yl]-[2-(1,2,4-triazol-1-yl)phenyl]methanone] and `C[C@H]1c2nn(C)c(-c3cc(F)c(F)c(F)c3)c2CCN1C(=O)c1cc(F)ccc1-n1cncn1` [Example 281, [(7S)-2,7-Dimethyl-3-(3,4,5-trifluorophenyl)-5,7-dihydro-4H-pyrazolo[3,4-c]pyridin-6-yl]-[5-fluoro-2-(1,2,4-triazol-1-yl)phenyl]methanone] are within 0.2 log units of each other in pIC50: 8.13 for the first, 8.05 for the second.

Compared with `C[C@H]1c2nn(C)c(-c3cc(F)c(F)c(F)c3)c2CCN1C(=O)c1c(F)cccc1-n1cncn1` [Example 280, [(7S)-2,7-Dimethyl-3-(3,4,5-trifluorophenyl)-5,7-dihydro-4H-pyrazolo[3,4-c]pyridin-6-yl]-[2-fluoro-6-(1,2,4-triazol-1-yl)phenyl]methanone], `C[C@H]1c2nn(C)c(-c3cc(F)c(F)c(F)c3)c2CCN1C(=O)c1ccccc1-n1cnc(C(F)(F)F)n1` [Example 282, [(7S)-2,7-Dimethyl-3-(3,4,5-trifluorophenyl)-5,7-dihydro-4H-pyrazolo[3,4-c]pyridin-6-yl]-[2-[3-(trifluoromethyl)-1,2,4-triazol-1-yl]phenyl]methanone] is 2.38 log units lower in pIC50: 8.11 for the first, 5.73 for the second.

`C[C@H]1c2nn(C)c(-c3cc(F)c(F)c(F)c3)c2CCN1C(=O)c1cccc(-n2nccn2)c1` [Example 283, [(7S)-2,7-Dimethyl-3-(3,4,5-trifluorophenyl)-5,7-dihydro-4H-pyrazolo[3,4-c]pyridin-6-yl]-[3-(triazol-2-yl)phenyl]methanone] was tested, and the pIC50 was 7.72.
